Series [1] can be described thus: Toxicity in Artemia salina. The series is classed as organism-based. Conditions: in vivo, read-out: LD50 (the source's name).
The subject of the next series is Trypanosoma cruzi. Put plainly: Antitrypanosomal activity against Trypanosoma cruzi Y trypomastigotes. It counts as functional, organism-based.

SMILES strings stand for the structures. In brackets after ≈: the same amount, converted by molar mass.

In the case of `CO[C@H]1O[C@@H]([C@H](O)C(C)(C)OC)C[C@H]1[C@@H]1CC[C@]2(C)C3=CC[C@H]4C(C)(C)C(=O)CC[C@]4(C)[C@H]3CC[C@@]12C`, the LC50 in series [1] is > 100 µg/mL. The molecule also returned an IC50 with Trypanosoma cruzi of 114 µg/mL (≈ 222 µM).

`CNc1ccccc1C(=O)O[C@H]1CC[C@]2(C)[C@H]3CC[C@]45C[C@]4(CC[C@H]5[C@@H]4C[C@H]([C@H](O)C(C)(C)O)OC4O)[C@]3(C)[C@H](O)C[C@H]2C1(C)C` (stereo partly specified): in series [1], the LC50 is > 100 µg/mL. For the same molecule, in the series with Trypanosoma cruzi, the IC50 is > 1000 µg/mL.

On to `CN(C)c1ccc(C(=C2C=CC(=[N+](C)C)C=C2)c2ccc(N(C)C)cc2)cc1.[Cl-]` [GENTIAN VIOLET], for which, in the series on Trypanosoma cruzi, the IC50 was found to be 7.5 µg/mL.

As to `CNc1ccccc1C(=O)O[C@H]1CC[C@]2(C)[C@H]3CC[C@]45C[C@]4(CC[C@H]5[C@@H]4C[C@H]([C@H](O)C(C)(C)O)O[C@H]4OC)[C@]3(C)[C@H](O)C[C@H]2C1(C)C`, the LC50 in series [1] was > 100 µg/mL. Moreover, the IC50 with Trypanosoma cruzi is > 1000 µg/mL.

In the case of `CO[C@@H]1O[C@@H]([C@H](O)C(C)(C)OC)C[C@H]1[C@@H]1CC[C@]2(C)C3=CC[C@H]4C(C)(C)C(=O)CC[C@]4(C)[C@H]3CC[C@@]12C`, the LC50 in series [1] was > 100 µg/mL. The IC50 in the series with Trypanosoma cruzi stood at 135 µg/mL (≈ 261 µM).

Regarding `CNc1ccccc1C(=O)O[C@H]1CC[C@]2(C)[C@H]3CC[C@]45C[C@]4(CC[C@H]5[C@@H]4C[C@H]([C@H](O)C(C)(C)O)O[C@@H]4OC)[C@]3(C)[C@H](O)C[C@H]2C1(C)C`, the LC50 in series [1] was > 100 µg/mL. For the same molecule, the IC50 in the series on Trypanosoma cruzi was > 1000 µg/mL.

As a reminder, the IC50 is the concentration that gives 50% inhibition. Higher therefore signals weaker potency.
